Structures can show the parent of a compound that is named as a salt.
Tests used:
[1] = tested on: NORMAL INTRAOCULAR PRESSURE IN UNANESTHETIZED RABBITS; test: Topical administration, effect on normal intraocular pressure in unanesthetized rabbits; assay type: in vivo; conditions: 12.1 % by wt., 50μl in both eyes, in 0.5% hydroxyethylcellulose
[2] = tested on: INTRAOCULAR PRESSURE (IOP) IN RABBITS WITH ALPHA CHYMOTRYPSIN-INDUCED OCULAR HYPERTENSION; test: Topical administration, effect on IOP in rabbits with alpha chymotrypsin-induced ocular hypertension (tonometry); assay type: in vivo; conditions: for mean ΔP (mean of ΔP versus IOP at t0): 8 animals; for mean ΔP (mean of ΔP versus IOP at t0) / Intraocular pressure, mean ± stand deviation: 50μl in 0.5% hydroxyethyl cellulose; for Change in IOP (mm Hg) After Drug Administration: 12.1 % by wt., 50µl of 0.5% hydroxyethylcellulose; for Change in IOP (mm Hg) After Drug Administration / IOP (mm Hg) t=0 min.: mean ± standard deviation, Table III; for IOP (mm Hg) t=0 min.: immediately prior the drug administration (served as control), 9 eyes; for Intraocular pressure, mean ± stand deviation: mean of 8 animals
[3] = 0 min after instillation (baseline), 14 eyes

Structure (SMILES) | Mean Intraocular Pressure ± SD [1, 3] | Mean Intraocular Pressure ± SD ([1]; 30 min after instillation) | Mean Intraocular Pressure ± SD ([1]; 60 min after instillation) | Mean Intraocular Pressure ± SD ([1]; 120 min after instillation) | Mean Intraocular Pressure ± SD ([1]; 180 min after instillation) | Mean Intraocular Pressure ± SD ([1]; 240 min after instillation) | Mean Intraocular Pressure ± SD ([1]; 300 min after instillation) | Change in IOP (mm Hg) After Drug Administration ([2]; 30 min) | Change in IOP (mm Hg) After Drug Administration ([2]; 60 min) | Change in IOP (mm Hg) After Drug Administration ([2]; 120 min) | Change in IOP (mm Hg) After Drug Administration ([2]; 180 min) | Change in IOP (mm Hg) After Drug Administration ([2]; 240 min) | Change in IOP (mm Hg) After Drug Administration ([2]; 300 min) | IOP (mm Hg) t=0 min. [2] | other results
CC(=O)N=c1sc(S(N)(=O)=O)nn1C.[Na] [Methazolamide Sodium salt, N-[5-(aminosulfonyl)-3-methyl-1,3,4-thiadiazol-2(3H)-ylidene]acetamide Sodium Salt] | 20±1.9 mm Hg | 20±3.0 mm Hg | 20±2.7 mm Hg | 19±3.3 mm Hg | 18±2.7 mm Hg | 20±3.4 mm Hg | 20±2.8 mm Hg | -3±4.6 mm Hg | -5±4.7 mm Hg | -6±6.0 mm Hg | -7±3.7 mm Hg | -5±5.4 mm Hg | -7±6.3 mm Hg | 39±7.7 mm Hg | mean ΔP (mean of ΔP versus IOP at t0) ([2]; 30 min.): -3.1±4.58 mm Hg; mean ΔP (mean of ΔP versus IOP at t0) ([2]; 60 min.): -5.1±4.68 mm Hg; mean ΔP (mean of ΔP versus IOP at t0) ([2]; 120 min.): -5.6±6.02 mm Hg; mean ΔP (mean of ΔP versus IOP at t0) ([2]; 180 min.): -6.8±3.70 mm Hg; mean ΔP (mean of ΔP versus IOP at t0) ([2]; 240 min.): -5.4±5.42 mm Hg; mean ΔP (mean of ΔP versus IOP at t0) ([2]; 300 min.): -6.9±6.27 mm Hg; Intraocular pressure, mean ± stand deviation ([2]; 0 min. (baseline)): 39.1±7.72 mm Hg; Intraocular pressure, mean ± stand deviation ([2]; 30 min.): 36.0±8.09 mm Hg; Intraocular pressure, mean ± stand deviation ([2]; 60 min.): 34.0±7.37 mm Hg; Intraocular pressure, mean ± stand deviation ([2]; 120 min.): 33.5±8.91 mm Hg; Intraocular pressure, mean ± stand deviation ([2]; 180 min.): 32.4±6.05 mm Hg; Intraocular pressure, mean ± stand deviation ([2]; 240 min.): 33.8±7.91 mm Hg; Intraocular pressure, mean ± stand deviation ([2]; 300 min.): 32.3±7.67 mm Hg
NS(=O)(=O)c1cc(Cl)c(Cl)c(S(N)(=O)=O)c1 [Dichlorphenamide Dipotassium salt, 4,5-Dichloro-m-benzenedisulfon-amide dipotassium salt . hemihydrate] | 20±1.8 mm Hg | 18±2.4 mm Hg | 18±2.4 mm Hg | 17±2.1 mm Hg | 15±2.4 mm Hg | 17±1.8 mm Hg | 20±2.6 mm Hg | -1±5.3 mm Hg | -4±3.8 mm Hg | -7±6.2 mm Hg | -6±6.8 mm Hg | -4±6.2 mm Hg | -3±6.7 mm Hg | 38±5.9 mm Hg | 
CC(=O)Nc1nnc(S(N)(=O)=O)s1.[K].[K] [Acetazolamide Dipotassium salt, N-[5-(aminosulfonyl)-1,3,4-thiadiazol-2-yl]acetamide dipotassium salt] | 19±1.3 mm Hg | 19±1.3 mm Hg | 20±1.4 mm Hg | 19±1.9 mm Hg | 19±1.9 mm Hg | 20±1.8 mm Hg | 21±1.7 mm Hg | -1±3.1 mm Hg | -3±4.8 mm Hg | -5±4.6 mm Hg | -6±5.3 mm Hg | -6±5.3 mm Hg | -3±6.5 mm Hg | 37±6.4 mm Hg | 

Source: patent publication EP0033042A1, “Ophthalmic inserts for lowering intraocular pressure comprising carbonic anhydrase inhibitors” (Merck & Co., Inc., priority 1980, dated 1981)
